# Results as given in patent US20140011799A1 (Bristol-Myers Squibb Company, priority 2012, published 2014).
# pIC50: −log10 of the molar value.
# Target: T1, Endothelial lipase (EL) (Homo sapiens, UniProt Q9Y5X9)
# T1 construct: HT-1080 cells that were transformed using RAGE technology (Athersys) to overexpress endogenous EL; endogenous in cells; conditioned medium used
# T1 sequence (Q9Y5X9 21-500): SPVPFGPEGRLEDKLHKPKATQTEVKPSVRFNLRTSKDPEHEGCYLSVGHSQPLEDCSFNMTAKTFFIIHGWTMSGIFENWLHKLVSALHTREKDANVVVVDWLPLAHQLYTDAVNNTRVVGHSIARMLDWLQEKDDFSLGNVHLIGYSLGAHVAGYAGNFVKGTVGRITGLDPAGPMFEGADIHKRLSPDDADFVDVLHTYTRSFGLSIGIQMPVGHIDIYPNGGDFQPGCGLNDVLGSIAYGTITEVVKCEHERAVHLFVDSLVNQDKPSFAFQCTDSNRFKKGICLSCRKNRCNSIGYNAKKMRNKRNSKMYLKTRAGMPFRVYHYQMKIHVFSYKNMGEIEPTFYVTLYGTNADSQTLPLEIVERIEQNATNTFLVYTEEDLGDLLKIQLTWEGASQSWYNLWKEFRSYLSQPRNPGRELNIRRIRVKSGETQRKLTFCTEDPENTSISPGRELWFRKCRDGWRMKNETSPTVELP
# Test: Endothelial lipase (EL) enzymatic assay, fluorescent substrate A10070 in DMPG vesicles
# Assay type: biochemical
# Details: EL from conditioned media of HT-1080 cells; compound preincubated 30 min at 37° C; read-out: EL IC50
# In short: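 Compounds were preincubated with enzyme for 30 min at 37° C before FRET-substrate vesicles (A10070 in DMPG, 0.11 mole fraction) were added. Reaction rates were obtained from the 300–900 sec slope of fluorescence at 490/530 nm.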
row,pIC50,SMILES
1,> 8.00,"Cc1ccccc1CS(=O)(=O)C(c1nnc(CNS(N)(=O)=O)o1)c1nc2ccc(-c3ccccc3)cc2s1 (stereo not shown) [Example 70, N-((5-(((2-methylbenzyl)sulfonyl)(6-phenyl-1,3-benzothiazol-2-yl)methyl)-1,3,4-oxadiazol-2-yl)methyl) sulfamide]"
2,> 8.00,"NS(=O)(=O)NCc1nnc(C(c2nc3ccc(-c4ccccc4)cc3s2)S(=O)(=O)CC2CCCCC2)o1 (stereo not shown) [Example 71, N-((5-(((cyclohexylmethyl)sulfonyl)(6-phenyl-1,3-benzothiazol-2-yl)methyl)-1,3,4-oxadiazol-2-yl)methyl)sulfamide]"
3,> 8.00,"NS(=O)(=O)NCc1nnc(C(c2nc3ccc(-c4ccccc4)cc3s2)S(=O)(=O)Cc2cc(C(F)(F)F)cc(C(F)(F)F)c2)o1 (stereo not shown) [Example 72, N-((5-(((3,5-bis (trifluoromethyl)benzyl)sulfonyl) (6-phenyl-1,3-benzothiazol-2-yl)methyl)-1,3,4-oxadiazol-2-yl)methyl)sulfamide]"
4,> 8.00,"NS(=O)(=O)NCc1nnc(C(c2nc3ccc(-c4ccccc4)cc3s2)S(=O)(=O)C2CC2)o1 (stereo not shown) [Example 74, N-({5-[(cyclopropylsulfonyl) (6-phenyl-1,3-benzothiazol-2-yl)methyl]-1,3,4-oxadiazol-2-yl}methyl) sulfuric diamide]"
5,7.96,"NS(=O)(=O)NCc1nnc(C(c2nc3ccc(-c4ccc(F)nc4)cc3s2)S(=O)(=O)Cc2ccc(C(F)(F)F)nc2)o1 (stereo not shown) [Example 76, N-({5-[6-(6-fluoro-3-pyridinyl)-1,3-benzothiazol-2-yl({[6-(trifluoromethyl)pyridin-3-yl]methyl}sulfonyl)methyl]-1,3,4-oxadiazol-2-yl}methyl) sulfuric diamide]"
6,> 8.00,"CS(=O)(=O)C(c1nnc(CNS(N)(=O)=O)o1)c1nc2ccc(-c3ccc(C(=O)NCC(F)(F)F)cc3)cc2s1 (stereo not shown) [Example 78, 4-(2-((methylsulfonyl) (5-((sulfamoylamino)methyl)-1,3,4-oxadiazol-2-yl)methyl)benzo[d]thiazol-6-yl)-N-(2,2,2-trifluoroethyl) benzamide]"
7,> 8.00,"CS(=O)(=O)C(c1nnc(CNS(N)(=O)=O)o1)c1nc2ccc(-c3ccc(F)nc3)cc2s1 (stereo not shown) [Example 79, N-((5-((6-(6-fluoro-3-pyridinyl)-1,3-benzothiazol-2-yl)(methylsulfonyl)methyl)-1,3,4-oxadiazol-2-yl)methyl)sulfamide]"
8,7.24,"CN1CCN(C(=O)c2ccc(-c3ccc4nc(C(c5nnc(CNS(N)(=O)=O)o5)S(C)(=O)=O)sc4c3)cc2)CC1 (stereo not shown) [Example 80, N-((5-((6-(4-((4-methyl-1-piperazinyl)carbonyl)phenyl)-1,3-benzothiazol-2-yl)(methylsulfonyl)methyl)-1,3,4-oxadiazol-2-yl)methyl)sulfamide]"
9,7.59,"CC(C)(C)CN1CC(c2nnc(C(c3nc4ccc(-c5ccccc5)cc4s3)S(=O)(=O)Cc3ccccc3)o2)C1 (stereo not shown) [Example 82, 2-((Benzylsulfonyl)(6-phenylbenzo[d]thiazol-2-yl)methyl)-5-(1-neopentylazetidin-3-yl)-1,3,4-oxadiazole]"
10,> 8.00,"CC(C)(C)OC(=O)NCc1nnc(C(c2nc3ccc(-c4ccccc4)cc3s2)S(C)(=O)=O)o1 (stereo not shown) [Example 83, tert-Butyl ((5-((methylsulfonyl)(6-phenylbenzo[d]thiazol-2-yl)methyl)-1,3,4-oxadiazol-2-yl)methyl)carbamate]"
11,> 8.00,"CC(C)(C)OC(=O)N(Cc1nnc(C(c2nc3ccc(-c4ccccc4)cc3s2)S(C)(=O)=O)o1)S(C)(=O)=O (stereo not shown) [Example 84, tert-Butyl methylsulfonyl((5-((methylsulfonyl)(6-phenylbenzo[d]thiazol-2-yl)methyl)-1,3,4-oxadiazol-2-yl)methyl)carbamate]"
12,7.32,"CS(=O)(=O)C(c1nnc(CN)o1)c1nc2ccc(-c3ccccc3)cc2s1 (stereo not shown) [Example 85, (5-((Methylsulfonyl)(6-phenylbenzo[d]thiazol-2-yl)methyl)-1,3,4-oxadiazol-2-yl)methanamine]"
13,7.33,"CS(=O)(=O)NCc1nnc(C(c2nc3ccc(-c4ccccc4)cc3s2)S(C)(=O)=O)o1 (stereo not shown) [Example 86, N-((5-((Methylsulfonyl)(6-phenylbenzo[d]thiazol-2-yl)methyl)-1,3,4-oxadiazol-2-yl)methyl)methanesulfonamide]"
14,7.34,"CCNC(=O)NCc1nnc(C(c2nc3ccc(-c4ccccc4)cc3s2)S(C)(=O)=O)o1 (stereo not shown) [Example 87, 1-Ethyl-3((5-((methylsulfonyl)(6-phenylbenzo[d]thiazol-2-yl)methyl)-1,3,4-oxadiazol-2-yl)methyl)urea]"
15,6.71,"CC(C)C(=O)NCc1nnc(C(c2nc3ccc(-c4ccccc4)cc3s2)S(C)(=O)=O)o1 (stereo not shown) [Example 88, N-((5-((Methylsulfonyl)(6-phenylbenzo[d]thiazol-2-yl)methyl)-1,3,4-oxadiazol-2-yl)methyl)isobutyramide]"
16,> 8.00,"CS(=O)(=O)C(c1nnc(CS(N)(=O)=O)o1)c1nc2ccc(-c3ccccc3)cc2s1 (stereo not shown) [Example 89, (5-((Methylsulfonyl)(6-phenylbenzo[d]thiazol-2-yl)methyl)-1,3,4-oxadiazol-2-yl)methanesulfonamide]"
17,> 8.00,"NS(=O)(=O)Cc1nnc(C(c2nc3c(F)cc(-c4ccccc4)cc3s2)S(=O)(=O)Cc2ccc(C(F)(F)F)cc2)o1 (stereo not shown) [Example 90, (5-((4-Fluoro-6-phenylbenzo[d]thiazol-2-yl)((4-(trifluoromethyl)benzyl)sulfonyl)methyl)-1,3,4-oxadiazol-2-yl)methanesulfonamide]"
18,> 8.00,"O=C(NCCS(=O)(=O)C(c1nnc(CC2SC(=O)NC2=O)o1)c1nc2c(F)cc(-c3ccccc3)cc2s1)OCc1ccccc1 (stereo not shown) [Example 92, benzyl (2-(((5-((2,4-dioxothiazolidin-5-yl)methyl)-1,3,4-oxadiazol-2-yl)(4-fluoro-6-phenyl-benzo[d]thiazol-2-yl)methyl)sulfonyl)ethyl) carbamate]"
19,> 8.00,"O=C1NC(=O)C(Cc2nnc(C(c3nc4c(F)cc(-c5ccccc5)cc4s3)S(=O)(=O)Cc3ccccc3)o2)S1 (stereo not shown) [Example 93, 5-((5-((benzylsulfonyl) (4-fluoro-6-phenyl-benzo[d]thiazol-2-yl)methyl)-1,3,4-oxadiazol-2-yl)methyl)thiazolidine-2,4-dione]"
20,> 8.00,"CS(=O)(=O)C(c1nnc(CC2SC(=O)NC2=O)o1)c1nc2c(F)cc(-c3ccccc3)cc2s1 (stereo not shown) [Example 94, 5-((5-((4-fluoro-6-phenyl-benzo[d]thiazol-2-yl) (methylsulfonyl)methyl)-1,3,4-oxadiazol-2-yl)methyl)thiazolidine-2,4-dione]"
21,> 8.00,"CC(C)S(=O)(=O)C(c1nnc(CC2SC(=O)NC2=O)o1)c1nc2c(F)cc(-c3ccccc3)cc2s1 (stereo not shown) [Example 95, 5-((5-((4-fluoro-6-phenyl-benzo[d]thiazol-2-yl) (isopropylsulfonyl)methyl)-1,3,4-oxadiazol-2-yl)methyl)thiazolidine-2,4-dione]"
22,> 8.00,"Cc1cc2nc(C(c3nnc(CC4SC(=O)NC4=O)o3)S(C)(=O)=O)sc2cc1-c1ccccc1 (stereo not shown) [Example 96, 5-((5-((5-methyl-6-phenylbenzo[d]thiazol-2-yl)(methyl-sulfonyl)methyl)-1,3,4-oxadiazol-2-yl)methyl)thiazolidine-2,4-dione]"

row,SMILES,pIC50
1,"NS(=O)(=O)NCc1nnc(C(c2nc3ccc(-c4ccccc4)cc3s2)S(=O)(=O)Cc2ccc(F)cc2)o1 (stereo not shown) [Example 69, N-((5-(((4-fluorobenzyl)sulfonyl)(6-phenyl-1,3-benzothiazol-2-yl)methyl)-1,3,4-oxadiazol-2-yl)methyl)sulfamide]",> 8.00
2,"NS(=O)(=O)NCc1nnc(C(c2nc3ccc(-c4ccccc4)cc3s2)S(=O)(=O)Cc2cccc(Cl)c2)o1 (stereo not shown) [Example 73, N-((5-(((3-chlorobenzyl)sulfonyl)(6-phenyl-1,3-benzothiazol-2-yl)methyl)-1,3,4-oxadiazol-2-yl)methyl)sulfamide]",> 8.00
3,"NS(=O)(=O)NCc1nnc(C(c2nc3ccc(-c4ccc(F)nc4)cc3s2)S(=O)(=O)Cc2ccccc2)o1 (stereo not shown) [Example 75, N-((5-((benzylsulfonyl) (6-(6-fluoro-3-pyridinyl)-1,3-benzothiazol-2-yl)methyl)-1,3,4-oxadiazol-2-yl)methyl)sulfamide]",> 8.00
4,"NS(=O)(=O)NCc1nnc(C(c2nc3ccc(-c4ccc(F)nc4)cc3s2)S(=O)(=O)Cc2ccc(F)nc2)o1 (stereo not shown) [Example 77, N-({5-[6-(6-fluoro-3-pyridinyl)-1,3-benzothiazol-2-yl({[6-fluoro-pyridin-3-yl]methyl}sulfonyl)methyl]-1,3,4-oxadiazol-2-yl}methyl)sulfuric diamide]",7.74
5,CN(Cc1nnc(C(c2nc3ccc(-c4ccccc4)cc3s2)S(=O)(=O)Cc2ccccc2)o1)S(N)(=O)=O (stereo not shown) [Example 81],7.49
6,"O=C1NC(=O)C(Cc2nnc(C(c3nc4cc(F)c(-c5ccccc5)cc4s3)S(=O)(=O)Cc3ccccc3)o2)S1 (stereo not shown) [Example 91, 5-((5-((benzylsulfonyl) (5-fluoro-6-phenyl-benzo[d]thiazol-2-yl)methyl)-1,3,4-oxadiazol-2-yl)methyl) thiazolidine-2,4-dione]",> 8.00
